From patent publication US20040116420A1 (priority 2001, published 2004)
pIC50: −log10 of the molar value.

Tests used:
HSV-1 protease = biological target: T1, HSV-1 protease (Human herpesvirus 1, UniProt P10210); experiment: Enzymatic assay for HSV-1 protease (assembly) inhibitor, fluorescence polarization; assay type: biochemical; settings: read-out: HSV-1 Enzyme inhibition IC50
T1 construct: 6xHis (N); made in house; host or cells: baculovirus expression system
How it was run: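 Fluorescence polarization read-out: after avidin stop, cleavage of a biotinylated DTAF-labelled release-site peptide by recombinant N-His6 HSV-1 protease was compared with no-inhibitor wells. Enzyme and compound were preincubated 30 min, then substrate reacted 60 min, all at room temperature, pH 7.4 citrate buffer with TCEP.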

HSV-1 = experiment: Antiviral activity, HSV-1 in Vero cells, plaque method; assay type: cell-based; settings: Human alphaherpesvirus 1, 20 hours, 90% inhibition of plaque formation
How it was run: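 This is a virus-yield read-out. The culture medium was frozen at −80° C and thawed, and the plaques it formed were counted. It came from Vero monolayers infected with 50,000 pfu HSV-1 and then exposed to the compound for 20 h at 37° C. EC90 is the concentration inhibiting 90% of plaque formation relative to the untreated infected control.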

Vero cells = experiment: Cytotoxicity, Vero cells, Alamar Blue; assay type: cell-based; settings: 25 μM, 20 hours
Procedure: An Assay Method for Cytotoxicity
The Vero cells were sown on a 96-well plate and then cultured overnight. The culture supernatant was removed, and 200 μl of 2% FBS-DMEM comprising 25 μM of the test compound was added. In this case, a substance to which 2% FBS-DMEM not comprising any test compound had been added was determined as a control. These cells were incubated in the presence of 5% CO2 at 37° C. for 20 hours. Alamar Blue (20 μl) was added to the cells, and cells were incubated for about 6 hours until the color of the control changed. The ratio of the absorbance was assayed using a microplate reader for absorption, and the value relative to the control was determined to be the ratio of living cells.

T1 sequence (P10210 1-247): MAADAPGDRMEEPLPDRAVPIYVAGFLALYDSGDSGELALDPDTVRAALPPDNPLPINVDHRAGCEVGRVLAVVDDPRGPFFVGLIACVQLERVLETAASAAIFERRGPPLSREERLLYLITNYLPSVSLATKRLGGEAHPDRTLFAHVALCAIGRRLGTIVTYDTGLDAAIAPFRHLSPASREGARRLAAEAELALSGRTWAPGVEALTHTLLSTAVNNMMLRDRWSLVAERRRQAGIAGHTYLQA

| Compound | pIC50 (HSV-1 protease) | EC90 (HSV-1) [µM] | Cell viability (% of control) (Vero cells) [%] |
| --- | --- | --- | --- |
| Cc1c(NC(=O)c2cccc(CCl)c2)ccc2nc(NC(C)(C)C(=O)N(C)CCc3ccccn3)oc(=O)c12 [Compound No.170, 3-Chloromethyl-N-(5-methyl-2-{1-methyl-1-[methyl-(2-pyridin-2-yl-ethyl)-carbamoyl]-ethylamino}-4-oxo-4H-benzo [d][1,3]oxazin-6-yl)-benzamide] | 5.82 | 7.8 | 13.6 |
| Cc1c(NC(=O)C=Cc2ccccc2)ccc2nc(NC(C)(C)C(=O)N(C)CCc3ccccn3)oc(=O)c12 [Compound No.159, N-(5-Methyl-2-{1-methyl-1-[methyl-(2-pyridin-2-yl-ethyl)-carbamoyl]-ethylamino}-4-oxo-4H-benzo[d][1,3]oxazin-6-yl)-3-phenyl-acrylamide] | 5.85 | 10.8 | 15.9 |
| Cc1c(NC(=O)c2ccccc2[N+](=O)[O-])ccc2nc(NC(C)(C)C(=O)N(C)CCc3ccccn3)oc(=O)c12 [Compound No.140, N-(5-Methyl-2-{1-methyl-1-[methyl-(2-pyridin-2-yl-ethyl)-carbamoyl]-ethylamino}-4-oxo-4H-benzo[d][1,3]oxazin-6-yl)-2-nitro-benzamide] | 5.38 | > 12.5 | 96.8 |
| Cc1c(NC(=O)OC(C)(C)C)ccc2nc(N3CCC[C@H]3C(=O)N(C)Cc3ccccn3)oc(=O)c12 [Compound No.90, {5-Methyl-2-[2S-(methyl-pyridin-2-ylmethyl-carbamoyl)-pyrrolidin-1-yl]-4-oxo-4H-benzo[d][1,3]oxazin-6-yl}-carbamic acid tert-butyl ester] | 4.77 | > 12.5 | 93.6 |
| Cc1c(NC(=O)c2ccc(CCl)cc2)ccc2nc(NC(C)(C)C(=O)N(C)CCc3ccccn3)oc(=O)c12 [Compound No.171, 4-Chloromethyl-N-(5-methyl-2-{1-methyl-1-[methyl-(2-pyridin-2-yl-ethyl)-carbamoyl]-ethylamino}-4-oxo-4H-benzo[d][1,3]oxazin-6-yl)-benzamide] | 5.68 | 10.2 | 16.1 |
| Cc1c(NC(=O)c2ccccc2Cl)ccc2nc(NC(C)(C)C(=O)N(C)CCc3ccccn3)oc(=O)c12 [compound 151, 2-Chloro-N-(5-methyl-2-{1-methyl-1-[methyl-(2-pyridin-2-yl-ethyl)-carbamoyl]-ethylamino}-4-oxo-4H-benzo[d][1,3]oxazin-6-yl)-benzamide] | 5.85 | 7.6 | 74.2 |
| Cc1c(NC(=O)OC(C)(C)C)ccc2nc(N[C@H](C(=O)N(C)CCc3cccnc3)C(C)(C)C)oc(=O)c12 [Compound No.66, (2-{2,2-Dimethyl-1S-[methyl-(2-pyridin-3-yl-ethyl)-carbamoyl]-propylamino}-5-methyl-4-oxo-4H-benzo[d][1,3]oxazin-6-yl)-carbamic acid tert-butyl ester] | 4.85 | 4.6 | 81.5 |
| Cc1c(NC(=O)OC(C)(C)C)ccc2nc(N(C)[C@@H](Cc3ccccc3)C(=O)N(C)CCc3ccccn3)oc(=O)c12 [Compound No.83, [5-Methyl-2-(methyl-{1S-[methyl-(2-pyridin-2-yl-ethyl)carbamoyl]-2-phenyl-ethyl}-amino)-4-oxo-4H-benzo[d][1,3]oxazin-6-yl]-carbamic acid tert-butyl ester] | 5.59 | 11.5 | 66.6 |
| Cc1c(NC(=O)OC(C)(C)C)ccc2nc(N[C@H](C(=O)NCc3cccnc3)C(C)(C)C)oc(=O)c12 [Compound No.33, (2-{2,2-dimethyl-1S-[(pyridin-3-ylmethyl)-carbamoyl]-propylamino}-5-methyl-4-oxo-4H-benzo[d][1,3]oxazin-6-yl)-carbamic acid tert-butyl ester] | 5.00 | 13 | 105.0 |
| Cc1c(NC(=O)OC(C)(C)C)ccc2nc(N[C@@H](CC(C)C)C(=O)NCc3ccccn3)oc(=O)c12 [Compound No.36, (5-Methyl-2-{3-methyl-1S-[(pyridin-2-ylmethyl)-carbamoyl]-butylamino}-4-oxo-4H-benzo[d][1,3]oxazin-6-yl)-carbamic acid tert-butyl ester] | 5.24 | 21.5 | 110.0 |
| Cc1c(NC(=O)COCc2ccccc2)ccc2nc(NC(C)(C)C(=O)N(C)CCc3ccccn3)oc(=O)c12 [Compound No.184, 2-[6-(2-Benzyloxy-acetylamino)-5-methyl-4-oxo-4H-benzo[d][1,3]oxazin-2-ylamino]-2,N-dimethyl-N-(2-pyridin-2-yl-ethyl)-propionamide] | 5.68 | 12.1 | 93.1 |
| Cc1c(NC(=O)OC(C)(C)C)ccc2nc(N(C)[C@@H](C)C(=O)N(C)CCc3ccccn3)oc(=O)c12 [Compound No.76, [5-Methyl-2-(methyl-{1S-[methyl-(2-pyridin-2-yl-ethyl)-carbamoyl]-ethyl}-amino)-4-oxo-4H-benzo[d][1,3]oxazin-6-yl]-carbamic acid tert-butyl ester] | 5.68 | > 12.5 | 87.9 |
| Cc1c(NC(=O)C(C)C)ccc2nc(NC(C)(C)C(=O)N(C)CCc3ccccn3)oc(=O)c12 [Compound No.195, 2-(6-Isobutyrylamino-5-methyl-4-oxo-4H-benzo[d][1,3]oxazin-2-ylamino)-2,N-dimethyl-N-(2-pyridin-2-yl-ethyl)-propionamide] | 5.68 | ≥ 12.5 | 99.7 |
| Cc1c(NC(=O)OC(C)(C)C)ccc2nc(N[C@@H](CCc3ccccc3)C(=O)N(C)CCc3cccnc3)oc(=O)c12 [Compound No.70, (5-Methyl-2-{1S-[methyl-(2-pyridin-3-yl-ethyl)-carbamoyl]-3-phenyl-propylamino}-4-oxo-4H-benzo[d][1,3]oxazin-6-yl)-carbamic acid tert-butyl ester] | 6.05 | < 3.2 | 48.0 |
| Cc1c(NC(=O)OC(C)(C)C)ccc2nc(N[C@@H](CCc3ccccc3)C(=O)N(C)CCc3ccccn3)oc(=O)c12 [Compound No.48, (5-Methyl-2-{1S-[methyl-(2-pyridin-2-yl-ethyl)-carbamoyl]-3-phenyl-propylamino}-4-oxo-4H-benzo[d][1,3]oxazin-6-yl)-carbamic acid tert-butyl ester] | 5.92 | 3.7 | 44.2 |
| Cc1c(NC(=O)C(C)(C)C)ccc2nc(NC(C)(C)C(=O)N(C)CCc3ccccn3)oc(=O)c12 [Compound No.136, 2,2-Dimethyl-N-(5-methyl-2-{1-methyl-1-[methyl-(2-pyridin-2-yl-ethyl)-carbamoyl]-ethylamino}-4-oxo-4H-benzo[d][1,3]oxazin-6-yl)-propionamide] | 5.35 | > 12.5 | 81.8 |
| Cc1c(NC(=O)c2ccccc2COC(=O)c2ccccc2)ccc2nc(NC(C)(C)C(=O)N(C)CCc3ccccn3)oc(=O)c12 [Compound No.186, Benzoic acid 2-(5-methyl-2-{1-methyl-1-[methyl-(2-pyridin-2-yl-ethyl)-carbamoyl]-ethylamino}-4-oxo-4H-benzo[d][1,3]oxazin-6-ylcarbamoyl)-benzyl ester] | 6.00 | 3.5 | 18.1 |
| Cc1cc(C(=O)Nc2ccc3nc(NC(C)(C)C(=O)N(C)CCc4ccccn4)oc(=O)c3c2C)c(C)o1 [Compound No.176, 2,5-Dimethyl-furan-3-carboxylic acid (5-methyl-2-{1-methyl-1-[methyl-(2-pyridin-2-yl-ethyl)-carbamoyl]-ethylamino}-4-oxo-4H-benzo[d][1,3]oxazin-6-yl)-amide] | 5.72 | > 12.5 | 93.3 |
| Cc1c(NC(=O)OC(C)(C)C)ccc2nc(N[C@H](C(=O)N(C)CCc3ccccn3)C(C)(C)C)oc(=O)c12 [Compound No.44, (2-{2,2-dimethyl-1S-[methyl-(2-pyridin-2-yl-ethyl)-carbamoyl]-propylamino}-5-methyl-4-oxo-4H-benzo[d][1,3]oxazin-6-yl)-carbamic acid tert-butyl ester] | < 4.70 | 5.9 | 66.2 |
| Cc1c(NC(=O)OC(C)(C)C)ccc2nc(N[C@@H](CCc3ccccc3)C(=O)NCc3cccnc3)oc(=O)c12 [Compound No.40, (5-Methyl-4-oxo-2-{3-phenyl-1S-[(pyridin-3-ylmethyl)-carbamoyl]-propylamino}-4H-benzo[d][1,3]oxazin-6-yl)-carbamic acid tert-butyl ester] | < 4.70 | > 25 | 100.0 |
| Cc1c(NC(=O)OC(C)(C)C)ccc2nc(N[C@@H](Cc3ccccc3)C(=O)N(C)CCc3ccncc3)oc(=O)c12 [Compound No.49, (5-Methyl-2-{1S-[methyl-(2-pyridin-4-yl-ethyl)-carbamoyl]-2-phenyl-ethylamino}-4-oxo-4H-benzo[d][1,3]oxazin-6-yl)-carbamic acid tert-butyl ester] | 6.05 | < 3.2 | 76.0 |
